The test system of assay [1] is MCF-7. The experiment in a line: Cell proliferation by MTT method, MCF-7. The assay is classed as cell-based. The following applies: Homo sapiens. The method, then: (§1) The objective of this study was to determine the influence of the compounds on cell proliferation of K-562, A-549, MCF-7, HeLa, WI-38 by MTT method. The compounds were tested over a three-fold dilution series in triplicate for the determination of EC50 of their influence on cell proliferation.
(§2) The assay is based on the cleavage of the yellow tetrazolium salt MTT into purple formazan by metabolically active cells. The MTT formazan crystals are insoluble in aqueous solution, but may be solubilized by adding the 10% SDS, then incubating the plates overnight in a humidified atmosphere (e.g., 37° C., 5% CO2). The solubilized formazan product can be photometrically quantitated using Tecan reader. An increase in the number of living cells results in an increase of total metabolic activity, which leads to a stronger color formation.
(§3) EC50 values are defined as the compound concentration at which 50% of reaction product is formed.
(§4) Test compounds were dissolved to 10 mM in 100% DMSO.
(§5) In the day of the experiment cells were seeded into all wells of 96-well plates. Serial dilution of compounds was performed in a separate 96-well plate at 20 times final assay concentration in cell culture medium (DMEM with 10% Fetal Bovine Serum). 5 μl of compound was transferred to 96-well plate containing seeded cells in cell culture medium (final total volume=100 μl). Cells were cultured in the presence of the respective test substances in the 96-well plate at 37° C. in a humidified 5% CO2 incubator for a certain period of time (24, 72 or 120 hours). Then 5 μL of thiazolyl blue tetrazolium bromide (MTT) 5 mg/mL was added to the cells and the cells were reincubated 4 hours in a humidified 5% CO2 incubator. Then 10% SDS was added into the each well. The reaction product was quantified by measuring the absorbance at 568 nm using a scanning multiwell spectrophotometer Tecan. The developed color and thereby the absorbance values directly correlate to the number of the living cells.
(§6) The data were analyzed using Microsoft Excel 2000, GraphPad Prism 3.03.
(§7) K 562 (human, chronic myelongenous leukemia), A 549 (human, lung carcinoma), MCF-7 (human, breast adenocarcinoma), Hela (human, cervix, carcinoma, epitheloid), WI-38 (human, embryonic lung)

The target in assay [2] is T1, Hsp90α (Homo sapiens, UniProt P07900).
T1 construct: purchased Stressgen Bioreagents SPP-776
The experiment in a line: Human Hsp90α fluorescence polarization competition assay with Example 37 tracer. The following applies: displacement of 50 nM example 37 tracer, 125 nM Hsp90α, 1 h 30 min, 20° C.; read-out: Relative binding affinity values (IC50) obtained from FP measurements. The source says:
The aim of this study was to determine the binding ability of compounds of the invention to the N-terminal ATP binding site of Hsp90. For that purpose competition assays with fluorescently labeled Hsp90 binders were used (compounds of examples 37 and 41).
Compounds of examples 37 and 41 are structurally based on 8-(6-Iodo-benzo[1,3]dioxol-5-ylsulfanyl)-9-(3-isopropylamino-propyl)-9H-purin-6-ylamine, a known binder of the N-terminal ATP binding site of Hsp90 which has the ability of inhibiting the Hsp90 function (cf. Chiosis G. et al. “Identification of Potent Water Soluble Purine-Scaffold Inhibitors of the Heat Shock Protein 90”, J. Med. Chem., 2006, vol. 49, no. 1, p. 381). Compounds 37 and 41 keep the essential structural features of the known binder (which means that said compounds are able to bind to the ATP binding site) and incorporate a fluorescent probe which allows the detection of the binding by fluorescence polarization.
When the binders of examples 37 and 41 are used in the competition assay, in a first step said binders are allowed to interact with the N-terminal ATP binding site of Hsp90. Then the compounds of the invention are added and it is determined if they are able to bind to the N-terminal ATP binding site (which will imply that the binders of examples 37 and 41 have been replaced from the N-terminal ATP binding site). If after performing the assay, the binding between the tested compound of the invention and the Hsp90 is observed, this will be indicative that the compound of the invention has been bound to the ATP binding site of Hsp90 and, therefore, can inhibit the Hsp90.
Once compounds of examples 37 and 41 were synthesized as reported above, they were dissolved at 238 μM and 1 mM in DMSO respectively (Sigma-Aldrich, cat. No. 154938). Hsp90α was purchased from Stressgen Bioreagents (cat. No. SPP-776; Victoria, Canada). The assay buffer contained 100 mM Tris·HCl, pH 7.4, 20 mM KCl, 6 mM MgCl2. Before each use 5 μg/mL bovine serum albumin (BSA, Pierce, Rockford (Ill.), cat No. 23209), 0.25 mM TCEP (Sigma, cat No. 64706) and 0.01% NP40 (Nonidet P40 Substitute, Fluka, cat No. 74385) were freshly added (cf. Howes et al., “A fluorescence polarization assay for inhibitors of Hsp90”, Analytical Biochemistry, 2006, vol. 350, p. 202-213; Kim et al., “Development of a fluorescence polarization assay for the molecular chaperone Hsp90”, J. Biomol. Screen., 2004, vol. 9 (5)).
Fluorescence polarization measurements were performed on an Infinite F200 (Tecan, Austria). Measurements were taken in black 96-well microplates (Corning Costar No. 3650) in which both the excitation and the emission occurred from the top of the wells. In the Infinite F200, a xenon arc lamp provides excitation light that passes through a 485 nm (20-nm bandwidth) excitation filter and then a polarizer filter. A beam splitter filter directs the polarized excitation light into the well, and emitted fluorescence transmits back through the same beam-splitter filter, through a polarizer filter, and then through a 535 nm (25-nm bandwidth) emission filter for detection (Kim et al., supra). The read time per well was 20 μs, and the number of reads per well was 25.
Compounds were assayed over a three-fold dilution series in a 96-well plate format to determine IC50 values. The serial dilution was performed in a separate 96-well plate (Thermowell 96 well PCR plate, Non-Treated Polypropylene, Corning Costar No. 6551) at 50 times final assay concentration in DMSO. (Howes et al, supra). 2 μl of compound was transferred to a black 96-well plate (Corning Costar No. 3650) and 98 μL of reaction solution (100 mM Tris·HCl, pH 7.4, 20 mM KCl, 6 mM MgCl2, 5 μg/mL bovine serum albumin (BSA), 0.25 mM TCEP, 0.01% NP40, 50 nM the compound of example 37, 125 nM Hsp90α) was added per well. The plate was allowed to equilibrate for 1 h 30 min on a slow moving shaker at 20° C. in the dark. […]
In general terms: Polarisation of emitted light reports the rotation of a fluorescent probe.

The subject of assay [3] is A-549. The experiment in a line: Cell proliferation by MTT method, A-549. The assay is classed as cell-based. The following applies: Homo sapiens. The method, then:
as §1, §2, §3, §4, §5, §6, §7
(In general: Tetrazolium assays rely on reduction of a dye to a coloured formazan, in cell work by metabolically active cells.)

The mark [4] stands for this setting: MCF7, 24 h, MCF-7, incubation 1 day.
[5] abbreviates: MCF7, 72 h, MCF-7, incubation 3 days.
[6] abbreviates: MCF7, 120 h, MCF-7, incubation 5 days.
Where [7] appears, read: A549, 24 h, A 549, incubation 1 day.
The mark [8] stands for this setting: A549, 72 h, A 549, incubation 3 days.
[9] abbreviates: A549, 120 h, A 549, incubation 5 days.

In general, EC50 refers to the concentration giving half of the maximal effect. What is called IC50 is the point on the concentration scale where inhibition reaches its midpoint.

`NCCCCCn1c(Sc2cc3c(cc2I)OCO3)nc(C(N)=O)c1N` [Example 6, 5-amino-1-(5-amino-pentyl)-2-(6-iodo-benzo[1,3]dioxol-5-ylsulfanyl)-1H-imidazole-4-carboxamide]: the EC50 in assay [1] (setting [4]) was greater than 100 µM; in assay [1] (setting [5]) it was 17.3 µM; in assay [1] (setting [6]), 16.7 µM; in assay [3] (setting [7]) it was greater than 100 µM; in assay [3] (setting [8]), 24.1 µM; in assay [3] (setting [9]) it was 14.9 µM. The IC50 in assay [2] was 0.88 µM.
For the compound `CCCCn1c(Sc2cc3c(cc2I)OCO3)nc(C(N)=O)c1N` [Example 10, 5-amino-1-butyl-2-(6-iodo-benzo[1,3]dioxol-5-ylsulfanyl)-1H-imidazole-4-carboxamide], the EC50 in assay [1] (setting [4]) is greater than 100 µM; in assay [1] (setting [5]), 10.1 µM; in assay [1] (setting [6]), 11.7 µM; in assay [3] (setting [7]), greater than 100 µM; in assay [3] (setting [8]) it was 13.3 µM; in assay [3] (setting [9]), 16.2 µM. Further, the IC50 in assay [2] turned out to be 1.7 µM.

For the origin of these results see US20100240656A1, “COMPOUNDS AS HSP90 INHIBITORS” (ORYZON GENOMICS, S.A., priority 2007, published 2010).
